From BindingDB's records for doi:10.1016/s0960-894x(02)01041-7 (Seoul National University, 2003)

Molecular target: HT-29 cell line (Homo sapiens)
Assay: In vitro antiproliferative activity of compound against HT-29 (human colon caner ) cell line was determined by SRB assay

Row | SMILES | IC50
1 | N#Cc1ccc(C=O)nc1SCc1c(Cl)cccc1Cl [2-(2,6-Dichloro-benzylsulfanyl)-6-formyl-nicotinonitrile] | 113 µM
2 | O=Cc1cccc(C(=O)Sc2ccc(Cl)c(Cl)c2)n1 [6-Formyl-pyridine-2-carbothioic acid S-(3,4-dichloro-phenyl) ester] | 33.1 µM
